Measurements published in patent US8748610B2, “Compounds as TRPV1 antagonists, pharmaceutical compositions and medical uses thereof” (FL Therapeutics LLC, priority 2009, dated 2014).

Biological target: T1, recombinant human TRPV1 (Homo sapiens, UniProt Q8NER1)
T1 construct: expressed in transfected cells
Assay: FLIPR based Ca2+ influx assay, capsaicin-induced, TRPV1.CHO cells
Format: cell-based
Conditions: CHO-K1 cells stably expressing recombinant human TRPV1; 30 nM capsaicin (~EC80); 15 mins pre-incubation
Method: The functional activity of compounds at the TRPV1 receptor was determined using a Molecular Devices FLIPR based Ca^2+ influx assay, employing a Ca^2+ sensitive fluorescent dye and a CHO-K1 cell line, stably expressing recombinant human TRPV1, under the control of a CMV promoter (TRPV1.CHO cells). TRPV1.CHO cells were routinely maintained at 37° C./5% CO2 in normal growth medium (Dulbecco's Modified Eagles medium (DMEM/NUT.MDC.F-12 GLUTAMAX-1 (1:1) with PYRIDOXINE) supplemented with 10% fetalclone II serum and 0.4 mg/ml G418, (all Invitrogen).
Test compounds were prepared as 10 mM stock solution in DMSO and tested for activity over several log units (ranging […]-100 pM). Serial dilutions (half-log dose response) were prepared in 100% DMSO with further dilutions in aqueous assay buffer to final assay concentration for IC50 determination (1% DMSO final).
TRPV1.CHO cells were seeded (10,000 cells/well) in a 384 clear bottom plate (Costar) 24 hr prior to assay. […]
TRPV1 responses were assessed following addition, in the FLIPR, of 12.5 μl/well of test compound (to give appropriate final concentration) for 15 mins time followed by 12.5 μl/well of 120 nM capsaicin (agonist) in TRPV1 buffer to give a final concentration of capsaicin of 30 nM (˜EC80 concentration). Ca^2+ influx was assessed by measurement of fluorescence. Baseline fluorescence responses were measured for approximately 10 s prior to addition of capsaicin. Increases in fluorescence emission following capsaicin addition were measured for a further 110 s. Responses were recorded as Max-Min fluorescence. Antagonist induced inhibition of TRPV1 mediated increases in intracellular [Ca^2+] was assessed relative to wells on the same plate to which capsaicin was added in the absence of antagonist (i.e pre-incubation in buffer alone).

T1 sequence (Q8NER1 whole entry): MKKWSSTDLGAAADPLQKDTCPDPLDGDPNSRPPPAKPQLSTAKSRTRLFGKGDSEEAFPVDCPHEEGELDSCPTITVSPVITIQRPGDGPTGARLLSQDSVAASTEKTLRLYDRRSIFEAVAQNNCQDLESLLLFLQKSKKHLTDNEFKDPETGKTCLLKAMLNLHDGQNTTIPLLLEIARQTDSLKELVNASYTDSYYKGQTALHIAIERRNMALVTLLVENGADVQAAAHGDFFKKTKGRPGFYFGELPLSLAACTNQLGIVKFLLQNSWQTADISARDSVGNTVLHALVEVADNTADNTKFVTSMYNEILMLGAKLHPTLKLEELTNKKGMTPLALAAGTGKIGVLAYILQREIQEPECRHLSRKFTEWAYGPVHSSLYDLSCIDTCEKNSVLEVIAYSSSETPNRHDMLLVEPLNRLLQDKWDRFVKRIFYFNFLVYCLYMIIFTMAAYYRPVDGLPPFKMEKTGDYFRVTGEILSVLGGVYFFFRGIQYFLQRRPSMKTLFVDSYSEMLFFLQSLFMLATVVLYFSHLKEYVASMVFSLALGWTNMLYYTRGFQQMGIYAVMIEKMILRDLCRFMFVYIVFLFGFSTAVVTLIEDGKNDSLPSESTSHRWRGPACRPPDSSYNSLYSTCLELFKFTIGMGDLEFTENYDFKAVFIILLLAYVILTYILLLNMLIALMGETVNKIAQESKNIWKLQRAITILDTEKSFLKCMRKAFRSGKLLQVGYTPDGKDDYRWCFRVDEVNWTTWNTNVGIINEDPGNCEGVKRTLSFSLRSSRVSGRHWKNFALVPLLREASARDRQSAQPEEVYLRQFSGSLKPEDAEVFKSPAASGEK

IC50 | Structure (SMILES)
0.5 nM | C[Si](C)(C)c1ccc(NC(=O)N2CCN(c3ncccc3Cl)CC2)cc1 [A-01, 4(3-chloropyridin-2-yl)-N-(4-(trimethylsilyl)phenyl)piperazine-1-carboxamide]
5.4 nM | C[Si](C)(C)c1ccc(NC(=O)c2ccc(-c3ncccc3C(F)(F)F)cc2)cc1 [A-04, 4-(3-(trifluoromethyl)pyridin-2-yl)-N-(4-(trimethylsilyl)phenyl)benzamide]
2.3 nM | C[Si](C)(C)c1ccc(NC(=O)C2=CCN(c3ncccc3Cl)CC2)cc1 [A-05, 1-(3-chloropyridin-2-yl)-N-(4-(trimethylsilyl)phenyl)-1,2,3,6-tetrahydropyridine-4-carboxamide]
